Like-named read-outs stand apart in the source and are kept apart here.
How the values were obtained:
[1] = Pharmacokinetic study of the inhibitors in mice blood plasma (PO and IV); format: in vivo; details: for concentration at 2 h / concentration at 4 h / concentration at 7 h: mouse, plasma, 30 mg/kg
Procedure: Pharmacokinetic Study of the Inhibitors in Mice Blood Plasma
The blood plasma concentration of compounds A1, A2, and A4 in mice was determined following per os, oral compound administration (“PO”) and intravenous (“IV”) administration
Calibration curve. The concentration range was evaluated from 2.5-5000 ng/ml for compound A2, 1-5000 ng/ml for compound A4, and 5-5000 ng/ml for compound A1. The curve was built with linear regression with weighing (1/X2). The linear regression analysis was performed by plotting the peak area ratio (y) against the concentration (x) in ng/mL.
Instrument Conditions. The LC-MS and mass spectrometry conditions for the compounds tested are shown below.
Results. The individual and average compound A1, A2, and A4 concentration-time data for IV and PO dosed groups are listed in Table 1, and graphically presented in FIG. 1.

[2] = tested on: thrombus formation in cremaster arterioles; test: Laser-induced cremaster arteriole thrombosis model; format: in vivo; details: WT mice, 3 mg/kg oral, twice a day for 2 days, versus PEG control; FIG. 4
Procedure: C57BL/6 wild-type (WT) control mice were purchased from Jackson Laboratories (Bar Harbor, Me., USA) and housed in the research facility at the University of Michigan. Compound A1 was synthesized and specifically formulated in Polyethylene Glycol 300 (PEG 300) for oral gavage dosing in mice for in vivo thrombosis and hemostasis studies. For laser-induced cremaster arteriole thrombosis model, mice were treated with compound A1 (3 mg/kg) or with PEG 300 via oral administration 2 times per day for 2 days prior to intravital microscopy studies on the third day.
Adult mice (10-12 weeks old) were anesthetized as described above and surgically prepared as described in detail, and a tracheal tube was inserted to facilitate breathing. The cremaster muscle was prepared and perfused with preheated bicarbonate-buffered saline throughout the experiment. DyLight 488-conjugated rat anti-mouse platelet GP1b8 antibody (0.1 μg/g; EMFRET Analytics) and Alexa Fluor 647-conjugated anti-fibrin (0.3 μg/g) or Alexa Flour 647 rat-anti mouse CD62P (3 μg/mouse) were administered by a jugular vein cannula prior to vascular injury. […] All captured images were analyzed for the change of fluorescent intensity over the course of thrombus formation after subtracting fluorescent background defined on an uninjured section of the vessel using the Slidebook program. […]

[3] = tested on: platelet accumulation in the lung (FcγRIIa-mediated platelet activation); test: Anti-GPIX-induced HITT model for lung thrombosis; format: in vivo, transgenic mice expressing the human FcγRIIa receptor; details: 15 mg/kg oral gavage, four hours following HITT induction, versus PEG vehicle; FIG. 5
Procedure: Adult transgenic mice (10-12 weeks old) expressing the human FcγRIIa receptor on their platelets were anesthetized as described above and were orally gavaged with 15 mg/kg of A1 or control vehicle 30-minutes prior to IV bolus injection of 0.75 mg/kg anti-GPIX to induce activation of the FcγRIIa receptor on the platelets to mimic heparin-induced thrombocytopenia and thrombosis (“HITT”) in the mouse. The anti-GPIX antibody was conjugated to DyLight 488 to visualize its binding to platelets and platelet accumulation in the lung. 4 hours post-anti-GPIX induction, the animals were sacrificed and the lungs were visualized using the Li—COR Odyssey imager.
Representative images of platelet accumulation (green) in the mouse lungs from control (PEG vehicle) and A1-treated (15 mg/kg) mice are shown in FIG. 5

[4] = iv, IV 30 mg/kg, n=3 (outliers excluded), read-out: Concentration in Plasma, Mean
[5] = iv, IV 30 mg/kg, read-out: Concentration in Plasma, Mouse 1
[6] = iv, IV 30 mg/kg, read-out: Concentration in Plasma, Mouse 2
[7] = iv, IV 30 mg/kg, read-out: Concentration in Plasma, Mouse 3
[8] = po, PO 30 mg/kg, n=3 (outliers excluded), read-out: Concentration in Plasma, Mean
[9] = po, PO 30 mg/kg, read-out: Concentration in Plasma, Mouse 1
[10] = po, PO 30 mg/kg, read-out: Concentration in Plasma, Mouse 2
[11] = po, PO 30 mg/kg, read-out: Concentration in Plasma, Mouse 3

- Concentration in Plasma, Mouse 2 ([1]; PO 30 mg/kg, 2 h): *899.2 ng/ml
- concentration at 2 h ([1]; iv, IV 30 mg/kg, 2 h, n=3 (outliers excluded), read-out: Concentration in Plasma, Mean): 77.4 ng/mL
- concentration at 2 h ([1]; iv, IV 30 mg/kg, 2 h, read-out: Concentration in Plasma, Mouse 1): 69.6 ng/mL
- concentration at 2 h ([1]; iv, IV 30 mg/kg, 2 h, read-out: Concentration in Plasma, Mouse 2): 124 ng/mL
- concentration at 2 h ([1]; iv, IV 30 mg/kg, 2 h, read-out: Concentration in Plasma, Mouse 3): 38.8 ng/mL
- concentration at 4 h [1, 4]: 29.2 ng/mL
- concentration at 4 h [1, 5]: 46.4 ng/mL
- concentration at 4 h [1, 6]: 20.2 ng/mL
- concentration at 4 h [1, 7]: 20.9 ng/mL
- concentration at 7 h [1, 4]: 16.9 ng/mL
- concentration at 7 h [1, 5]: 36.5 ng/mL
- concentration at 7 h [1, 6]: 5.9 ng/mL
- concentration at 7 h [1, 7]: 8.3 ng/mL
- concentration at 2 h ([1]; po, PO 30 mg/kg, 2 h, n=3 (outliers excluded), read-out: Concentration in Plasma, Mean): 40.4 ng/mL
- concentration at 2 h ([1]; po, PO 30 mg/kg, 2 h, read-out: Concentration in Plasma, Mouse 1): 21 ng/mL
- concentration at 2 h ([1]; po, PO 30 mg/kg, 2 h, read-out: Concentration in Plasma, Mouse 3): 59.7 ng/mL
- concentration at 4 h [1, 8]: 52.9 ng/mL
- concentration at 4 h [1, 9]: 48.9 ng/mL
- concentration at 4 h [1, 10]: 89.8 ng/mL
- concentration at 4 h [1, 11]: 20 ng/mL
- concentration at 7 h [1, 8]: 15.2 ng/mL
- concentration at 7 h [1, 9]: 12.1 ng/mL
- concentration at 7 h [1, 10]: 24.1 ng/mL
- concentration at 7 h [1, 11]: 9.3 ng/mL
Compound: COc1cccc(CNc2ccc(S(=O)(=O)Nc3cccc(Cl)c3)cc2)c1O [Compound A1, N-(3-chlorophenyl)-4-((2-hydroxy-3-methoxybenzyl)amino) benzenesulfonamide]
- thrombus formation (platelet accumulation and fibrin formation) in cremaster arterioles [2]: impairs thrombus formation
- thrombocytopenia and thrombosis (platelet accumulation) in mouse lungs [3]: inhibit thrombocytopenia and thrombosis in mouse lungs

From patent publication US11236044B2, “Selective inhibitors of 12(S)-lipoxygenase (12-LOX) and methods for use of the same” (THE REGENTS OF THE UNIVERSITY OF MICHIGAN, priority 2018, dated 2022)
